Data published in the supplement of paper PMC10307832.

What was measured:
Assay in all cases: relative viability (nuclei count vs DMSO), 5 days (fraction); higher = more cells survive
[1] = compound: CC1=C(N=C(N=C1N)[C@H](CC(=O)N)NC[C@@H](C(=O)N)N)C(=O)N[C@@H]([C@H](C2=CN=CN2)OC3C(C(C(C(O3)CO)O)O)OC4C(C(C(C(O4)CO)O)OC(=O)N)O)C(=O)N[C@H](C)[C@H]([C@H](C)C(=O)N[C@@H]([C@@H](C)O)C(=O)NCCC5=NC(=CS5)C6=NC(=CS6)C(=O)NCCC[S+](C)C)O [Bleomycin] + COc1cccc2cc(-c3nc([C@H]4CC[C@H](C(=O)O)CC4)n4ncnc(N)c34)[nH]c12 [OSI-027] (partner 0.5 µM); details: main component drawn
In short: (§1)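 Lung cancer cell lines in 1536-well plates were dosed by pin tool the day after seeding, either with one drug alone or with a fixed anchor-drug dose plus five library-drug doses (not always all listed) in √10 steps. After 5 days, cells were fixed and their nuclei stained in one step (final 0.05% Triton X-100, 1% formaldehyde, 1 ug/ml Hoechst), then counted on 4× images. Relative viability is the nuclei count in treated wells divided by that in vehicle wells. Values are medians of duplicate plates.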

[2] = compound: CC1=C(N=C(N=C1N)[C@H](CC(=O)N)NC[C@@H](C(=O)N)N)C(=O)N[C@@H]([C@H](C2=CN=CN2)OC3C(C(C(C(O3)CO)O)O)OC4C(C(C(C(O4)CO)O)OC(=O)N)O)C(=O)N[C@H](C)[C@H]([C@H](C)C(=O)N[C@@H]([C@@H](C)O)C(=O)NCCC5=NC(=CS5)C6=NC(=CS6)C(=O)NCCC[S+](C)C)O [Bleomycin] + CS(=O)(=O)N1CCN(Cc2cc3nc(-c4cccc5[nH]ncc45)nc(N4CCOCC4)c3s2)CC1 [Pictilisib] (partner 1 µM); details: main component drawn
In short: as §1

[3] = compound: COc1cc([C@@H]2c3cc4c(cc3[C@@H](O[C@@H]3O[C@@H]5CO[C@@H](C)O[C@H]5[C@H](O)[C@H]3O)[C@H]3COC(=O)[C@H]23)OCO4)cc(OC)c1O [Etoposide] + CS(=O)(=O)CCNCc1ccc(-c2ccc3ncnc(Nc4ccc(OCc5cccc(F)c5)c(Cl)c4)c3c2)o1 [Lapatinib] (partner 2 µM)
In short: as §1

[4] = compound: COc1cc([C@@H]2c3cc4c(cc3[C@@H](O[C@@H]3O[C@@H]5CO[C@@H](C)O[C@H]5[C@H](O)[C@H]3O)[C@H]3COC(=O)[C@H]23)OCO4)cc(OC)c1O [Etoposide] + Cc1nc(Nc2ncc(C(=O)Nc3c(C)cccc3Cl)s2)cc(N2CCN(CCO)CC2)n1 [Dasatinib] (partner 0.075 µM)
In short: as §1

Row | Cell Line | relative viability ([1]; first compound 0.01 µM) | relative viability ([1]; first compound 0.03162 µM) | relative viability ([1]; first compound 0.1 µM) | relative viability ([1]; first compound 0.3162 µM) | relative viability ([1]; first compound 1 µM) | relative viability ([2]; first compound 0.01 µM) | relative viability ([2]; first compound 0.03162 µM) | relative viability ([2]; first compound 0.1 µM) | relative viability ([2]; first compound 0.3162 µM) | relative viability ([2]; first compound 1 µM) | relative viability ([3]; first compound 0.01 µM) | relative viability ([3]; first compound 0.03162 µM) | relative viability ([3]; first compound 0.1 µM) | relative viability ([3]; first compound 0.3162 µM) | relative viability ([3]; first compound 1 µM) | relative viability ([4]; first compound 0.01 µM) | relative viability ([4]; first compound 0.03162 µM) | relative viability ([4]; first compound 0.1 µM) | relative viability ([4]; first compound 0.3162 µM) | relative viability ([4]; first compound 1 µM)
1 | LXF-289 | 0.647 | 0.781 | 0.693 | 0.315 | 0.169 | 0.713 | 0.799 | 0.685 | 0.358 | 0.15 | 0.88 | 0.972 | 0.953 | 0.601 | 0.222 | 0.209 | 0.217 | 0.231 | 0.206 | 0.0795
2 | NCI-H2009 | 0.606 | 0.609 | 0.637 | 0.501 | 0.41 | 0.768 | 0.672 | 0.749 | 0.324 | 0.405 | 0.885 | 1.08 | 0.856 | 0.408 | 0.247 | 0.288 | 0.313 | 0.218 | 0.282 | 0.207
3 | NCI-H3122 | 0.917 | 1.03 | 0.76 | 0.262 | 0.261 | 0.642 | 0.591 | 0.577 | 0.243 | 0.36 | 1.09 | 0.998 | 0.97 | 0.91 | 0.451 | 0.749 | 0.775 | 0.112 | 0.817 | 0.223
4 | NCI-H1755 | 0.67 | 0.727 | 0.706 | 0.718 | 0.427 | 0.429 | 0.498 | 0.385 | 0.282 | 0.247 | 1.06 | 1.13 | 1.02 | 0.988 | 0.71 | 0.433 | 0.452 | 0.469 | 0.413 | 0.394
5 | HCC-78 | 0.38 | 0.348 | 0.309 | 0.311 | 0.29 | 0.201 | 0.213 | 0.204 | 0.199 | 0.159 | 1.03 | 0.836 | 0.206 | 0.134 | 0.202 | 0.435 | 0.39 | 0.33 | 0.334 | 0.152
6 | LOU-NH91 | 0.667 | 0.564 | 0.555 | 0.503 | 0.306 | 0.53 | 0.493 | 0.432 | 0.392 | 0.325 | 0.759 | 0.788 | 0.576 | 0.619 | 0.347 | 0.579 | 0.601 | 0.492 | 0.566 | 0.395
7 | NCI-H322M | 0.399 | 0.535 | 0.513 | 0.464 | 0.421 | 0.49 | 0.493 | 0.491 | 0.4 | 0.421 | 0.558 | 0.596 | 0.55 | 0.586 | 0.389 | 0.272 | 0.237 | 0.232 | 0.26 | 0.254
8 | HCC-827 | 0.71 | 0.81 | 0.6 | 0.562 | 0.193 | 0.921 | 0.787 | 0.916 | 0.512 | 0.399 | 0.172 | 0.262 | 0.205 | 0.208 | 0.134 | 0.243 | 0.298 | 0.177 | 0.279 | 0.188
9 | SW 1573 | 0.566 | 0.407 | 0.382 | 0.258 | 0.169 | 0.43 | 0.361 | 0.459 | 0.254 | 0.174 | 1.03 | 1.12 | 0.576 | 0.696 | 0.267 | 0.43 | 0.525 | 0.212 | 0.155 | 0.0993
10 | NCI-H1975 | 0.566 | 0.638 | 0.435 | 0.153 | 0.132 | 0.288 | 0.256 | 0.258 | 0.188 | 0.134 | 0.857 | 1.04 | 0.739 | 0.528 | 0.214 | 0.336 | 0.426 | 0.32 | 0.348 | 0.214
11 | NCI-H1651 | 0.671 | 0.524 | 0.551 | 0.323 | 0.186 | 0.576 | 0.517 | 0.44 | 0.249 | 0.153 | 0.753 | 0.774 | 0.614 | 0.199 | 0.121 | 0.282 | 0.426 | 0.385 | 0.189 | 0.0972
12 | NCI-H460 | 0.373 | 0.334 | 0.165 | 0.038 | 0.0308 | 0.307 | 0.285 | 0.244 | 0.0358 | 0.1 | 0.726 | 0.732 | 0.394 | 0.0299 | 0.0144 | 0.432 | 0.509 | 0.285 | 0.132 | 0.0414
13 | LCLC-97TM1 | 0.444 | 0.403 | 0.177 | 0.196 | 0.108 | 0.141 | 0.119 | 0.141 | 0.0993 | 0.0953 | – | 1.23 | 0.465 | 0.23 | 0.124 | 0.858 | 0.943 | 0.933 | 0.681 | 0.179
14 | NCI-H838 | 0.347 | 0.269 | 0.186 | 0.173 | 0.174 | 0.414 | 0.28 | 0.18 | 0.156 | 0.202 | 0.996 | 1.02 | 0.617 | 0.478 | 0.171 | 0.338 | 0.295 | 0.219 | 0.271 | 0.285
15 | NCI-H1355 | 0.459 | 0.416 | 0.427 | 0.258 | 0.194 | 0.425 | 0.458 | 0.358 | 0.214 | 0.214 | 1.09 | 1.03 | 0.472 | 0.775 | 0.248 | 0.673 | 0.692 | 0.376 | 0.622 | 0.251
16 | HOP-62 | 0.383 | 0.498 | 0.333 | 0.184 | 0.127 | 0.427 | 0.31 | 0.389 | 0.115 | 0.103 | 0.973 | 1.05 | 0.833 | 0.533 | 0.187 | 0.584 | 0.676 | 0.492 | 0.621 | 0.363
17 | NCI-H2085 | 0.832 | 0.761 | 0.574 | 0.317 | 0.44 | 0.427 | 0.386 | 0.364 | 0.29 | 0.293 | 0.777 | 0.73 | 0.534 | 0.599 | 0.372 | 0.219 | 0.241 | 0.226 | 0.23 | 0.197
